From ChEMBL document CHEMBL1201862, “PubChem BioAssay data set” (2004)
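In this assay, cells in 96-well plates receive the compound at five concentrations for 48 hours. Endpoints are linearly interpolated between the surrounding concentrations. GI50: concentration for 50% inhibition of growth.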 The source made the active and inactive calls. Rule as the data show it: active = GI50 up to about 1.1 µM and inactive = higher.

Columns and labels:
Assay in all cases: NCI anticancer screen, dose series, 48 h
CAKI-1 = test system: CAKI-1
COLO 205 = test system: COLO 205
HL-60 = test system: HL-60
HOP-92 = test system: HOP-92
Hs-578T = test system: Hs-578T
KM12 = test system: KM12
LOX IMVI = test system: LOX IMVI
NCI-H23 = test system: NCI-H23
OVCAR-8 = test system: OVCAR-8
PC-3 = test system: PC-3
RPMI-8226 = test system: RPMI-8226
SN12C = test system: SN12C
SNB-19 = test system: SNB-19
SNB-75 = test system: SNB-75
SR = test system: SR
SW-620 = test system: SW-620

Structure (SMILES)	GI50 (CAKI-1)	GI50 (COLO 205)	GI50 (HL-60)	GI50 (HOP-92)	GI50 (Hs-578T)	GI50 (KM12)	GI50 (LOX IMVI)	GI50 (NCI-H23)	GI50 (OVCAR-8)	GI50 (PC-3)	GI50 (RPMI-8226)	GI50 (SN12C)	GI50 (SNB-19)	GI50 (SNB-75)	GI50 (SR)	GI50 (SW-620)
CCOC(=O)/C=C/C1(CCOC(C)=O)CCCCC1	> 10 µM (inactive)	> 10 µM (inactive)	> 10 µM (inactive)	> 10 µM (inactive)	> 10 µM (inactive)	> 10 µM (inactive)	> 10 µM (inactive)	> 10 µM (inactive)	> 10 µM (inactive)	> 10 µM (inactive)	> 10 µM (inactive)	> 10 µM (inactive)	> 10 µM (inactive)	> 10 µM (inactive)	> 10 µM (inactive)	> 10 µM (inactive)
Nc1ncnc2c1ncn2C1OC(C(=O)OCCO)C(O)C1O (configuration not stated)	> 100 µM (inactive)	> 100 µM (inactive)	> 100 µM (inactive)	> 100 µM (inactive)	> 100 µM (inactive)	> 100 µM (inactive)	> 100 µM (inactive)	> 100 µM (inactive)	> 100 µM (inactive)	> 100 µM (inactive)	> 100 µM (inactive)	> 100 µM (inactive)	> 100 µM (inactive)	> 100 µM (inactive)	> 100 µM (inactive)	> 100 µM (inactive)
CCOC(=O)c1c(N/C(S)=N/c2ccccc2)sc2c1CCOC2	43.3 µM (inactive)	> 100 µM (inactive)	24 µM (inactive)	24.9 µM (inactive)	67.3 µM (inactive)	69.5 µM (inactive)	52.7 µM (inactive)	26.4 µM (inactive)	> 100 µM (inactive)	61.2 µM (inactive)	55.5 µM (inactive)	48.8 µM (inactive)	> 100 µM (inactive)	17.5 µM (inactive)	53.5 µM (inactive)	> 100 µM (inactive)
CC1(C)C[C@H]2C3=CC[C@@H]4[C@@]5(C)CC[C@H](O)C(C)(C)[C@@H]5CC[C@@]4(C)[C@]3(C)C[C@@H](O)[C@@]23C[C@@H]1OC3=O	> 100 µM (inactive)	44.8 µM (inactive)	37.1 µM (inactive)	> 100 µM (inactive)	> 100 µM (inactive)	70.3 µM (inactive)	> 100 µM (inactive)	> 100 µM (inactive)	> 100 µM (inactive)	68.1 µM (inactive)	65.5 µM (inactive)	> 100 µM (inactive)	> 100 µM (inactive)	> 100 µM (inactive)	> 100 µM (inactive)	> 100 µM (inactive)
NC(=O)C1CCCN1C(=O)C(Cc1c[nH]cn1)NC(=O)C1CCCC1 (configuration not stated)	> 100 µM (inactive)	> 100 µM (inactive)	> 100 µM (inactive)	> 100 µM (inactive)	> 100 µM (inactive)	> 100 µM (inactive)	> 100 µM (inactive)	> 100 µM (inactive)	> 100 µM (inactive)	> 100 µM (inactive)	> 100 µM (inactive)	> 100 µM (inactive)	> 100 µM (inactive)	> 100 µM (inactive)	> 100 µM (inactive)	> 100 µM (inactive)
CCCCCC(O)C1C(=O)OC(C)C(O)/C=C/C=C/C=C/C=C\C=C(\C)C(O)CC(O)CC(O)CC(O)CC(O)CC(O)CC1O (configuration not stated)	> 50 µM (inactive)	> 50 µM (inactive)	> 50 µM (inactive)	> 50 µM (inactive)	> 50 µM (inactive)	> 50 µM (inactive)	> 50 µM (inactive)	> 50 µM (inactive)	> 50 µM (inactive)	> 50 µM (inactive)	> 50 µM (inactive)	> 50 µM (inactive)	> 50 µM (inactive)	> 50 µM (inactive)	> 50 µM (inactive)	> 50 µM (inactive)
CSc1nc(C)c2c(n1)SCC2	> 10 µM (inactive)	> 10 µM (inactive)	> 10 µM (inactive)	> 10 µM (inactive)	2.52 µM (inactive)	> 10 µM (inactive)	> 10 µM (inactive)	> 10 µM (inactive)	> 10 µM (inactive)	> 10 µM (inactive)	> 10 µM (inactive)	> 10 µM (inactive)	> 10 µM (inactive)	> 10 µM (inactive)	> 10 µM (inactive)	> 10 µM (inactive)
O=Cc1ccc(-c2cccc([N+](=O)[O-])c2)s1	> 100 µM (inactive)	> 100 µM (inactive)	64.4 µM (inactive)	> 100 µM (inactive)	53.6 µM (inactive)	> 100 µM (inactive)	> 100 µM (inactive)	> 100 µM (inactive)	80.9 µM (inactive)	> 100 µM (inactive)	67 µM (inactive)	> 100 µM (inactive)	> 100 µM (inactive)	70.8 µM (inactive)	56.5 µM (inactive)	> 100 µM (inactive)
CCOC(=O)c1ccc(/N=c2/[nH]c3ccccc3s/c2=N/c2ccc(C(=O)OCC)cc2)cc1	> 100 µM (inactive)	> 100 µM (inactive)	> 100 µM (inactive)	> 100 µM (inactive)	39.5 µM (inactive)	> 100 µM (inactive)	> 100 µM (inactive)	> 100 µM (inactive)	86.7 µM (inactive)	> 100 µM (inactive)	> 100 µM (inactive)	> 100 µM (inactive)	> 100 µM (inactive)	48 µM (inactive)	> 100 µM (inactive)	> 100 µM (inactive)
CCCCCOC(=O)c1cc2cc(CCl)ccc2oc1=O	1.75 µM (inactive)	2.36 µM (inactive)	0.552 µM (active)	2.62 µM (inactive)	7.23 µM (inactive)	13.6 µM (inactive)	14.4 µM (inactive)	1.5 µM (inactive)	17.9 µM (inactive)	4.07 µM (inactive)	18.9 µM (inactive)	9.59 µM (inactive)	18.7 µM (inactive)	8.22 µM (inactive)	8.07 µM (inactive)	12.1 µM (inactive)
S=C1C(CCCOCc2ccccc2)C2CCCC23CC2(CCN13)OCCS2 (configuration not stated)	> 10 µM (inactive)	> 10 µM (inactive)	> 10 µM (inactive)	> 10 µM (inactive)	> 10 µM (inactive)	> 10 µM (inactive)	> 10 µM (inactive)	> 10 µM (inactive)	> 10 µM (inactive)	> 10 µM (inactive)	> 10 µM (inactive)	> 10 µM (inactive)	> 10 µM (inactive)	> 10 µM (inactive)	> 10 µM (inactive)	> 10 µM (inactive)
CCOC(NC(=O)CC)(C(F)(F)F)C(F)(F)F	> 100 µM (inactive)	> 100 µM (inactive)	> 100 µM (inactive)	> 100 µM (inactive)	> 100 µM (inactive)	> 100 µM (inactive)	> 100 µM (inactive)	> 100 µM (inactive)	> 100 µM (inactive)	> 100 µM (inactive)	> 100 µM (inactive)	> 100 µM (inactive)	> 100 µM (inactive)	> 100 µM (inactive)	> 100 µM (inactive)	> 100 µM (inactive)
O=C(NC(OCc1ccccc1)(C(F)(F)F)C(F)(F)F)OCc1ccccc1	14.4 µM (inactive)	17.8 µM (inactive)	17.1 µM (inactive)	14.7 µM (inactive)	13.9 µM (inactive)	16.4 µM (inactive)	14.5 µM (inactive)	12.9 µM (inactive)	16.3 µM (inactive)	13.8 µM (inactive)	16.4 µM (inactive)	15.9 µM (inactive)	15.8 µM (inactive)	15.6 µM (inactive)	12 µM (inactive)	17.3 µM (inactive)
O=C(OCc1c(-c2ccccc2)nn(-c2ccccc2)c1COC(=O)Oc1ccccc1)Oc1ccccc1	> 100 µM (inactive)	> 100 µM (inactive)	> 100 µM (inactive)	> 100 µM (inactive)	> 100 µM (inactive)	> 100 µM (inactive)	> 100 µM (inactive)	> 100 µM (inactive)	> 100 µM (inactive)	> 100 µM (inactive)	> 100 µM (inactive)	> 100 µM (inactive)	> 100 µM (inactive)	> 100 µM (inactive)	> 100 µM (inactive)	> 100 µM (inactive)
CCc1nnc(S)n1/N=C\c1ccc(-c2ccccc2Cl)o1	45.3 µM (inactive)	31.3 µM (inactive)	20.4 µM (inactive)	33.2 µM (inactive)	57 µM (inactive)	28.8 µM (inactive)	23.5 µM (inactive)	26.4 µM (inactive)	24.3 µM (inactive)	37.4 µM (inactive)	20.5 µM (inactive)	37.2 µM (inactive)	45.3 µM (inactive)	28.2 µM (inactive)	19.6 µM (inactive)	27.7 µM (inactive)
O=C1CSC(c2ccc(Cl)cc2)N1c1ccc(Oc2ccc(Cl)cc2)c(Cl)c1 (configuration not stated)	13.3 µM (inactive)	18.2 µM (inactive)	11 µM (inactive)	15.7 µM (inactive)	11 µM (inactive)	15.7 µM (inactive)	15.2 µM (inactive)	16.9 µM (inactive)	17.5 µM (inactive)	15.2 µM (inactive)	8.95 µM (inactive)	20 µM (inactive)	15.6 µM (inactive)	12.3 µM (inactive)	18.4 µM (inactive)	18.3 µM (inactive)
C(/C=N/c1ccccc1)=C(/Nc1ccccc1)c1ccc2ccccc2c1	0.667 µM (active)	1.85 µM (inactive)	1.5 µM (inactive)	9.62 µM (inactive)	2.58 µM (inactive)	1.78 µM (inactive)	1.53 µM (inactive)	2.13 µM (inactive)	3.61 µM (inactive)	1.55 µM (inactive)	1.79 µM (inactive)	1.6 µM (inactive)	2.29 µM (inactive)	1.64 µM (inactive)	0.676 µM (active)	3.88 µM (inactive)
